Test results as given in the Kinase Knowledgebase extract (Sharma et al. 2016).

Target: PIK3CG (human) (UniProt P48736)
Assay: Inhibition of PIK3CG Kinase Activity

PIK3CG (human), sequence (P48736 whole entry, looked up): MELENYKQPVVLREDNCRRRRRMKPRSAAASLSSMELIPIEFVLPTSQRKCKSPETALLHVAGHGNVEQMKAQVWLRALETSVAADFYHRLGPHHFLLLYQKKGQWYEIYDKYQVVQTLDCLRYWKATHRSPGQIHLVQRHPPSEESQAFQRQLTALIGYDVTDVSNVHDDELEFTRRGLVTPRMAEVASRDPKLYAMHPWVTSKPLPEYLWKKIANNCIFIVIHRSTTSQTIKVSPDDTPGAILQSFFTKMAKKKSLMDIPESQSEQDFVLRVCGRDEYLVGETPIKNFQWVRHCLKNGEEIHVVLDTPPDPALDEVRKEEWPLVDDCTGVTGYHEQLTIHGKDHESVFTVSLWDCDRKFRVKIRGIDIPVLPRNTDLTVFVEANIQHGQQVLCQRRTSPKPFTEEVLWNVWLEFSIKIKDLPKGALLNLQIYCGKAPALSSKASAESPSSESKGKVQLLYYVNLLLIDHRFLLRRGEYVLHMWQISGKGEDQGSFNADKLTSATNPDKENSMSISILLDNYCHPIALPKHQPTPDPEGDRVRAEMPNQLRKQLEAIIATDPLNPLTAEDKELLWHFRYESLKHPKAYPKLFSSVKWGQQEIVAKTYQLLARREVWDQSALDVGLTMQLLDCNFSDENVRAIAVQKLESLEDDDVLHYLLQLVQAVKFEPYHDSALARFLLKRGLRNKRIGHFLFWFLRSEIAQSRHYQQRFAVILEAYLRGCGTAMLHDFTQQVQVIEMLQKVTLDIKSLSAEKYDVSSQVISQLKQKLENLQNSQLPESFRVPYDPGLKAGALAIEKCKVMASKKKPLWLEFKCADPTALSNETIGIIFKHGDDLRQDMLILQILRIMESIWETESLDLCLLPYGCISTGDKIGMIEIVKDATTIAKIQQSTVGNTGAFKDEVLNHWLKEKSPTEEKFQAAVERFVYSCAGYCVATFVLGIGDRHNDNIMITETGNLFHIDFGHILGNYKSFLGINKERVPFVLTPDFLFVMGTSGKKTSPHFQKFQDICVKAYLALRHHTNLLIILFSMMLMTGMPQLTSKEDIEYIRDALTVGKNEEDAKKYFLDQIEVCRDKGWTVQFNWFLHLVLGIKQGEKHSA

Compound | IC50
Cc1csc(Nc2nc(C)c(-c3ccc(S(N)(=O)=O)cc3)s2)n1 | < 600 nM
Cc1nc(Nc2cc[nH]n2)sc1-c1ccc(S(C)(=O)=O)c(OCCN2CCOCC2)c1 | < 600 nM
Cc1nc(Nc2cnccn2)sc1-c1ccc([S+](C)[O-])cc1 (centres undefined) | < 600 nM
Cc1nc(Nc2nnc(N3CCOCC3)s2)sc1-c1ccc(S(C)(=O)=O)c(C(F)(F)F)c1 | < 600 nM
Cc1nc(Nc2cncc(Cl)n2)sc1-c1ccc(S(C)(=O)=O)c(C(F)(F)F)c1 | < 600 nM
Cc1nc(Nc2cnccn2)sc1-c1cccc(S(N)(=O)=O)c1 | < 600 nM
Cc1nc(Nc2cncc(NCCN3CCOCC3)n2)sc1-c1ccc(S(N)(=O)=O)cc1 | < 600 nM
Cc1nc(Nc2ncccn2)sc1-c1ccc(S(N)(=O)=O)cc1 | < 600 nM
Cc1nc(Nc2cc[nH]n2)sc1-c1ccc(Cl)c(S(=O)(=O)N(CCO)CCO)c1 | < 600 nM
CCOc1cccc(Nc2nc(C)c(-c3ccc(S(N)(=O)=O)cc3)s2)n1 | < 600 nM
Cc1nc(Nc2cccnc2)sc1-c1ccc(S(C)(=O)=O)c(Cl)c1 | < 600 nM
Cc1nc(Nc2cnccn2)sc1-c1cccc(S(=O)(=O)NCCO)c1 | < 600 nM
COc1cncc(Nc2nc(C)c(-c3ccc(S(=O)(=O)NC4CC4)cc3)s2)n1 | < 600 nM
Cc1cnc(Nc2nc(C)c(-c3ccc(Cl)c(S(=O)(=O)NCCO)c3)s2)s1 | < 600 nM
Cc1nc(Nc2cc[nH]n2)sc1-c1ccc(S(C)(=O)=O)c(-n2ccnc2)c1 | < 600 nM
CCN(CC)CCCNS(=O)(=O)c1cc(-c2sc(Nc3cc[nH]n3)nc2C)ccc1Cl | < 600 nM
Cc1nc(Nc2nnc(CCN3CCOCC3)s2)sc1-c1ccc(S(N)(=O)=O)cc1 | < 600 nM
Cc1nnc(Nc2nc(C)c(-c3ccc(S(N)(=O)=O)cc3)s2)s1 | < 600 nM
Cc1nc(Nc2ccc(N3CCN(C)CC3)nc2)sc1-c1ccc(S(C)(=O)=O)cc1 | < 600 nM
COc1cncc(Nc2nc(C)c(-c3ccc(S(N)(=O)=O)cc3)s2)n1 | < 600 nM

Compound | IC50
Cc1nc(Nc2cnccn2)sc1-c1ccc(S(C)(=O)=O)c(-n2ccnc2)c1 | < 600 nM
Cc1nc(Nc2cccnc2)sc1-c1ccc(S(N)(=O)=O)cc1 | < 600 nM
Cc1nc(Nc2ccc(Cl)cn2)sc1-c1ccc(S(N)(=O)=O)cc1 | < 600 nM
Cc1nc(Nc2nnc(CCN(C)C)s2)sc1-c1ccc(S(N)(=O)=O)cc1 | < 600 nM
CCN(CC)CCN(C)c1cc(-c2sc(Nc3cc[nH]n3)nc2C)ccc1S(C)(=O)=O | < 600 nM
Cc1nc(Nc2ccccn2)sc1-c1ccc(S(N)(=O)=O)cc1 | < 600 nM
COc1ccc(Nc2nc(C)c(-c3ccc(S(N)(=O)=O)cc3)s2)cn1 | < 600 nM
CCCc1nccn1-c1cc(-c2sc(Nc3nnc(CC)s3)nc2C)ccc1S(C)(=O)=O | < 600 nM
Cc1nc(Nc2cnccn2)sc1-c1ccc(S(C)(=O)=O)cc1 | < 600 nM
Cc1nc(Nc2n[nH]cc2Br)sc1-c1ccc(S(C)(=O)=O)c(F)c1 | < 600 nM
CNS(=O)(=O)c1ccc(-c2sc(Nc3cnccn3)nc2C)cc1 | < 600 nM
Cc1nc(Nc2cc[nH]n2)sc1-c1ccc(C(=O)O)cc1 | < 600 nM
CCc1nnc(Nc2nc(C)c(-c3cccc(S(N)(=O)=O)c3)s2)s1 | < 600 nM
Cc1nc(Nc2cnccn2)sc1-c1ccc(S(N)(=O)=O)cc1 | < 600 nM
Cc1nc(Nc2cnccn2)sc1-c1ccc(C(=O)O)cc1 | < 600 nM
Cc1nc(Nc2nnc(C3CCC(C(=O)O)CC3)s2)sc1-c1ccc(S(C)(=O)=O)c(C(F)(F)F)c1 (centres undefined) | < 600 nM
COc1ccc(Nc2nc(C)c(-c3ccc(Cl)c(S(C)(=O)=O)c3)s2)cn1 | < 600 nM
Cc1cnc(Nc2nc(C)c(-c3ccc(C(=O)O)cc3)s2)s1 | < 600 nM
Cc1nc(Nc2cnccn2)sc1-c1ccc(S(C)(=O)=O)c(-n2ccnc2C(C)C)c1 | < 600 nM
Cc1nc(Nc2cncc(N3CCN(C)CC3)n2)sc1-c1ccc(S(N)(=O)=O)cc1 | < 600 nM

Compound | IC50
Cc1nc(Nc2cnccn2)sc1-c1ccc(Cl)c(S(N)(=O)=O)c1 | < 600 nM
Cc1nc(Nc2cc[nH]n2)sc1-c1ccc(S(C)(=O)=O)c(N2CCN(C)CC2)c1 | < 600 nM
Cc1nc(Nc2cc[nH]n2)sc1-c1cccc(S(=O)(=O)NCCO)c1 | < 600 nM
Cc1nc(Nc2cc[nH]n2)sc1-c1ccc(S(N)(=O)=O)cc1 | < 600 nM
COc1cc(Nc2nc(C)c(-c3ccc(S(N)(=O)=O)cc3)s2)ncn1 | < 600 nM
Cc1nc(Nc2nnn[nH]2)sc1-c1ccc(S(N)(=O)=O)cc1 | < 600 nM
Cc1nc(Nc2nnc(N3CCN(C)CC3)s2)sc1-c1ccc(S(C)(=O)=O)c(C(F)(F)F)c1 | < 600 nM
Cc1nc(Nc2cnccn2)sc1-c1ccc(S(=O)(=O)NC2CC2)cc1 | < 600 nM
Cc1nc(Nc2ccncc2)sc1-c1ccc(S(N)(=O)=O)cc1 | < 600 nM
Cc1nc(Nc2cc[nH]n2)sc1-c1ccc(S(C)(=O)=O)c(C(F)(F)F)c1 | < 600 nM
Cc1nc(Nc2cnccn2)sc1-c1ccc(S(C)(=O)=O)c(C(F)(F)F)c1 | < 600 nM
Cc1nc(Nc2cncc(N3CCOCC3)n2)sc1-c1ccc(S(N)(=O)=O)cc1 | < 600 nM
Cc1nc(Nc2cccnc2)sc1-c1ccc(S(N)(=O)=O)c(Cl)c1 | < 600 nM
Cc1nc(Nc2cncc(Cl)n2)sc1-c1ccc(S(N)(=O)=O)cc1 | < 600 nM
Cc1nc(Nc2nccs2)sc1-c1ccc(S(N)(=O)=O)cc1 | < 600 nM
Cc1nc(Nc2nc[nH]n2)sc1-c1ccc(S(N)(=O)=O)cc1 | < 600 nM
Cc1nc(Nc2cncc(Cl)n2)sc1-c1ccc(S(C)(=O)=O)cc1 | < 600 nM
CCc1nnc(Nc2nc(C)c(-c3ccc(S(=O)(=O)NCCO)cc3)s2)s1 | < 600 nM

Other lines, results leading:

IC50 | Compound
< 600 nM | Cc1nc(Nc2cnccn2)sc1-c1ccc(S(C)(=O)=O)c(-n2ccnc2C)c1
< 600 nM | Cc1nc(Nc2cnccn2)sc1-c1ccc(Cl)c(S(=O)(=O)NCCO)c1
< 600 nM | Cc1nc(Nc2cc[nH]n2)sc1-c1ccc(S(C)(=O)=O)c(F)c1
< 600 nM | Cc1nc(Nc2ccn(C)n2)sc1-c1ccc(S(C)(=O)=O)c(F)c1
< 600 nM | CCOC(=O)CCc1nnc(Nc2nc(C)c(-c3ccc(S(N)(=O)=O)cc3)s2)s1
< 600 nM | Cc1nc(Nc2nnc(CCC(=O)O)s2)sc1-c1ccc(S(C)(=O)=O)c(C(F)(F)F)c1
< 600 nM | Cc1nc(Nc2cc[nH]n2)sc1-c1cccc(S(N)(=O)=O)c1
< 600 nM | Cc1cnc(Nc2nc(C)c(-c3ccc(S(N)(=O)=O)cc3)s2)s1
< 600 nM | Cc1nc(Nc2nnc(CCN3CCOCC3)s2)sc1-c1ccc(S(C)(=O)=O)c(C(F)(F)F)c1
< 600 nM | CCN(CC)CCCNc1cncc(Nc2nc(C)c(-c3ccc(S(N)(=O)=O)cc3)s2)n1
< 600 nM | Cc1nc(Nc2nccs2)sc1-c1ccc(Cl)c(S(=O)(=O)NCCO)c1
< 600 nM | COc1ccc(-c2sc(Nc3cnccn3)nc2C)cc1S(N)(=O)=O
< 600 nM | Cc1nc(Nc2nnc(CCC(=O)O)s2)sc1-c1ccc(S(N)(=O)=O)cc1
< 600 nM | Cc1nc(Nc2cncc(NCCCO)n2)sc1-c1ccc(S(N)(=O)=O)cc1
< 600 nM | Cc1cc(Nc2nc(C)c(-c3ccc(Cl)c(S(=O)(=O)NCCO)c3)s2)n(C)n1
< 600 nM | Cc1nc(Nc2cncc(N3CCN(C)CC3)n2)sc1-c1ccc(S(C)(=O)=O)c(C(F)(F)F)c1
< 600 nM | Cc1nc(Nc2nncs2)sc1-c1ccc(S(N)(=O)=O)cc1
< 600 nM | Cc1nnc(Nc2nc(C)c(-c3ccc(S(C)(=O)=O)c(-n4ccnc4)c3)s2)s1
< 600 nM | Cc1nc(Nc2cc[nH]n2)sc1-c1ccc(Cl)c(S(=O)(=O)NCCO)c1
< 600 nM | Cc1nc(Nc2ccn(C)n2)sc1-c1ccc(Cl)c(S(=O)(=O)NCCO)c1
< 600 nM | Cc1nc(Nc2nnc(CC(=O)O)s2)sc1-c1ccc(S(N)(=O)=O)cc1
< 600 nM | CCCc1nccn1-c1cc(-c2sc(Nc3cc[nH]n3)nc2C)ccc1S(C)(=O)=O
< 600 nM | Cc1nc(Nc2ccc(Cl)nn2)sc1-c1ccc(S(N)(=O)=O)cc1
< 600 nM | CCc1nccn1-c1cc(-c2sc(Nc3cnccn3)nc2C)ccc1S(C)(=O)=O
< 600 nM | CNS(=O)(=O)c1ccc(-c2sc(Nc3cncc(OC)n3)nc2C)cc1
< 600 nM | Cc1nc(Nc2cnccn2)sc1-c1ccc(S(N)(=O)=O)c(Cl)c1
